What was measured:
[1] = tested on: Giant foxtail (Setaria faberi); experiment: General postemergence herbicidal activity, greenhouse; format: in vivo; details: post-emergence, 336 h, post-emergent, visual score after 14 days (0 no injury, 100 complete kill), read-out: % Growth Reduction SETFA; for pest or weed control at 140 g/ha: 140 g ai/ha; for pest or weed control at 280 g/ha: 280 g ai/ha
Procedure: (§1) Seeds or nutlets of the desired test plant species were planted in Sun Gro MetroMix® 360 planting mixture, which typically has a pH of 6.0 to 6.8 and an organic matter content of about 30 percent, in plastic pots with a surface area of 64 square centimeters. When required to ensure good germination and healthy plants, a fungicide treatment and/or other chemical or physical treatment was applied. The plants were grown for 7-21 days in a greenhouse with an approximate 15 hour photoperiod which was maintained at about 23-29° C. during the day and 22-28° C. during the night. Nutrients and water were added on a regular basis and supplemental lighting was provided with overhead metal halide 1000-Watt lamps as necessary. The plants were employed for testing when they reached the first or second true leaf stage.
(§2) A weighed amount, determined by the highest rate to be tested, of each test compound was dissolved in 4 mL of a 97:3 v/v (volume/volume) mixture of acetone and dimethyl sulfoxide (DMSO) to obtain concentrated stock solutions. […] The concentrated stock solutions obtained were diluted with 20 mL of an aqueous mixture containing acetone, water, isopropyl alcohol, DMSO, Atplus 411F crop oil concentrate, and Triton X-155 surfactant in a 48.5:39:10:1.5:1.0:0.02 v/v ratio to obtain spray solutions containing the highest application rates. Additional application rates were obtained by serial dilution of 12 mL of the high rate solution into a solution containing 2 mL of 97:3 v/v (volume/volume) mixture of acetone and dimethyl sulfoxide (DMSO) and 10 mL of an aqueous mixture containing acetone, water, isopropyl alcohol, DMSO, Atplus 411F crop oil concentrate, and Triton X-155 surfactant in a 48.5:39:10:1.5:1.0:0.02 v/v ratio to obtain ½×, ¼×, ⅛× and 1/16× rates of the high rate. Compound requirements are based upon a 12 mL application volume at a rate of 187 L/ha. Formulated compounds were applied to the plant material with an overhead Mandel track sprayer equipped with a 8002E nozzles calibrated to deliver 187 L/ha over an application area of 0.503 square meters at a spray height of […] above the average plant canopy height. Control plants were sprayed in the same manner with the solvent blank.
(§3) The treated plants and control plants were placed in a greenhouse as described above and watered by sub-irrigation to prevent wash-off of the test compounds. After 14 days, the condition of the test plants as compared with that of the untreated plants was determined visually and scored on a scale of 0 to 100 percent where 0 corresponds to no injury and 100 corresponds to complete kill.

[2] = tested on: Velvetleaf (Abutilon theophrasti); experiment: as above; format: in vivo; details: post-emergence, 336 h, post-emergent, visual score after 14 days (0 no injury, 100 complete kill), read-out: % Growth Reduction ABUTH; for pest or weed control at 140 g/ha: 140 g ai/ha; for pest or weed control at 280 g/ha: 280 g ai/ha
Procedure: as §1, §2, §3

[3] = tested on: Barnyardgrass (Echinochloa crus-galli); experiment: as above; format: in vivo; details: post-emergence, 336 h, post-emergent, visual score after 14 days (0 no injury, 100 complete kill), read-out: % Growth Reduction ECHCG; for pest or weed control at 140 g/ha: 140 g ai/ha
Procedure: as §1, §2, §3

[4] = tested on: Wild buckwheat (Polygonum convolvulus); experiment: as above; format: in vivo; details: Fallopia convolvulus, post-emergence, 336 h, post-emergent, visual score after 14 days (0 no injury, 100 complete kill), read-out: % Growth Reduction POLCO; for pest or weed control at 140 g/ha: 140 g ai/ha; for pest or weed control at 280 g/ha: 280 g ai/ha
Procedure: as §1, §2, §3

| Compound | pest or weed control at 140 g/ha [1] | pest or weed control at 140 g/ha [2] | pest or weed control at 140 g/ha [3] | pest or weed control at 140 g/ha [4] | also measured |
| --- | --- | --- | --- | --- | --- |
| CCOC(=O)c1nc(-c2ccc(Cl)c(F)c2)nc(N)c1OC [Compound 9, 6-Amino-2-(4-chloro-3-fluorophenyl)-5-methoxypyrimidine-4-carboxylic acid ethyl ester] | 30% | 95% | 90% | 100% |  |
| COc1c(N)nc(-c2ccc(C)cc2F)nc1C(=O)O [Compound 28, 6-Amino-2-(2-fluoro-4-methylphenyl)-5-methoxypyrimidine-4-carboxylic acid] |  |  |  |  | melting point: 94 to 97 °C |
| CCOC(=O)c1nc(-c2ccc(Cl)c(C(C)F)c2F)nc(N)c1OC (stereo not shown) [Compound 14, 6-Amino-2-[4-chloro-2-fluoro-3-(1-fluoroethyl)phenyl]-5-methoxypyrimidine-4-carboxylic acid ethyl ester] | 100% | 100% | 100% | 100% |  |
| COc1c(N)nc(-c2ccc(Cl)c(OC)c2F)nc1C(=O)O [Compound 22, 6-Amino-2-(4-chloro-2-fluoro-3-methoxyphenyl)-5-methoxypyrimidine-4-carboxylic acid] | 100% | 100% | 100% | 100% |  |
| CCOC(=O)c1nc(-c2cc(C)c(Cl)cc2F)nc(N)c1OC [Compound 3, 6-Amino-2-(4-chloro-2-fluoro-5-methylphenyl)-5-methoxypyrimidine-4-carboxylic acid ethyl ester] |  |  |  |  | pest or weed control at 280 g/ha [1]: 0%; pest or weed control at 280 g/ha [2]: 60%; pest or weed control at 280 g/ha ([3]; 280 g ai/ha): 0%; pest or weed control at 280 g/ha [4]: 85% |
| COc1c(Cl)ccc(-c2nc(N)c(SC)c(C(=O)O)n2)c1F [Compound 21, 6-Amino-2-(4-chloro-2-fluoro-3-methoxyphenyl)-5-methylsulfanyl-pyrimidine-4-carboxylic acid] | 60% | 85% | 100% | 100% |  |
| CCOC(=O)c1nc(-c2ccc3c(c2)OCO3)nc(N)c1OC [Compound 12, 6-Amino-2-benzo[1,3]-dioxol-5-yl-5-methoxypyrimidine-4-carboxylic acid ethyl ester] | 90% | 50% | 85% | 80% |  |
| COc1c(N)nc(-c2ccc(Cl)cc2F)nc1C(=O)O [Compound 31, 6-Amino-2-(4-chloro-2-fluorophenyl)-5-methoxypyrimidine-4-carboxylic acid] | 70% | 100% | 85% | 100% |  |
| CCOC(=O)c1nc(-c2ccc(Cl)cc2F)nc(N)c1OC [Compound 13, 6-Amino-2-(4-chloro-2-fluorophenyl)-5-methoxypyrimidine-4-carboxylic acid ethyl ester] | 35% | 100% | 0% | 100% |  |
| CCOC(=O)c1nc(-c2ccc(C(F)(F)F)cc2)nc(N)c1OC [Compound 11, 6-Amino-5-methoxy-2-(4-trifluoromethylphenyl)pyrimidine-4-carboxylic acid ethyl ester] | 0% | 90% | 85% | 85% |  |
| CCOC(=O)c1nc(-c2ccc(Cl)cc2)nc(N)c1OC [Compound 2, 6-Amino-2-(4-chlorophenyl)-5-methoxypyrimidine-4-carboxylic acid ethyl ester] | 70% | 98% | 50% | 100% |  |
| COc1c(N)nc(-c2ccc(C)cc2)nc1C(=O)O [Compound 32, 6-Amino-5-methoxy-2-p-tolylpyrimidine-4-carboxylic acid] | 65% | 80% | 95% | 100% |  |
| COC(=O)c1nc(-c2ccc(Cl)c(OC)c2F)nc(N)c1OC [Compound 1, 6-amino-2-(4-chloro-2-fluoro-3-methoxyphenyl)-5-methoxypyrimidine-4-carboxylic acid methyl ester] | 95% | 100% | 100% | 100% |  |
| CCOC(=O)c1nc(-c2cc(OC)c(Cl)cc2F)nc(N)c1OC [Compound 16, 6-Amino-2-(4-chloro-2-fluoro-5-methoxyphenyl)-5-methoxypyrimidine-4-carboxylic acid ethyl ester] | 10% | 60% | 0% | 100% |  |
| CCOc1c(N)nc(-c2ccc(Cl)c(OC)c2F)nc1C(=O)O [Compound 18, 6-Amino-2-(4-chloro-2-fluoro-3-methoxyphenyl)-5-ethoxy-pyrimidine-4-carboxylic acid] |  |  |  |  | pest or weed control at 280 g/ha [1]: 70%; pest or weed control at 280 g/ha [2]: 70%; pest or weed control at 280 g/ha [4]: 100% |
| COC(=O)c1nc(-c2ccc(Cl)c(OC)c2F)nc(N)c1SC [Compound 19, 6-Amino-2-(4-chloro-2-fluoro-3-methoxyphenyl)-5-methylsulfanylpyrimidine-4-carboxylic acid methyl ester] |  |  |  |  | pest or weed control at 195 g/ha ([1]; 195 g ai/ha): 85%; pest or weed control at 195 g/ha ([2]; 195 g ai/ha): 90%; pest or weed control at 195 g/ha ([3]; 195 g ai/ha): 90%; pest or weed control at 195 g/ha ([4]; 195 g ai/ha): 100% |
| CCOC(=O)c1nc(-c2ccc(C)cc2F)nc(N)c1OC [Compound 10, 6-Amino-2-(2-fluoro-4-methylphenyl)-5-methoxypyrimidine-4-carboxylic acid ethyl ester] | 0% | 100% | 10% | 90% |  |
